Read-outs that look alike come from different tables or passages of the source.
How the values were obtained:
[1] = molecular target: T1, Arabidopsis thaliana DHS2 (SEQ ID NO:2) variant DHS2^A4 (sotaA4), G222S (Arabidopsis thaliana, UniProt Q00218, G222S); assay: biochemical; format: biochemical
T1 construct: without the predicted plastid transit peptide (amino acid residues; 49-525, 34-507, and 52-527, respectively); made in house; host or cells: E. coli
Method: (§1) To generate recombinant DHS proteins the pET28a vectors carrying the A. thaliana DHS1 (AtDHS1), AtDHS2, or AtDHS3 WT sequence without the predicted plastid transit peptide (amino acid residues; 49-525, 34-507, and 52-527, respectively) were expressed in E. coli Rosetta-2 cells and purified using Ni-affinity chromatography, exactly as was conducted previously (9). To generate DHS proteins with individual sota mutations via site-directed mutagenesis, these pET28a plasmid templates were diluted by 500-fold, mixed with 0.04 U/μL Phusion DNA polymerase (Thermo Scientific), 0.2 mM deoxynucleoside triphosphates (dNTPs), 1× Phusion reaction buffer (Thermo Scientific), and 0.5 μM forward and reverse mutagenesis primers (Table 10). The PCR reaction was run using the following protocol: 98° C. for 30 s followed by 20 cycles of 10 s at 98° C., 20 s at 70° C., 4.5 min at 72° C. with a final extension at 72° C. for 10 min. The PCR products were purified using a QIAquick Gel Extraction Kit (QIAGEN), treated with FastDigest DpnI (Thermo Scientific) to digest methylated plasmid template DNA for 20 min at 37° C., and transformed into E. coli cells. The mutagenized pET28a plasmids were sequenced to confirm that no errors were introduced during the mutagenesis process.
(§2) The DHS enzyme assays were conducted using the colorimetric method that we recently described (9). Briefly, the enzyme solution (7.7 μl) containing 50 mM Hepes (pH 7.4) was preincubated with an effector molecule(s) at room temperature for 15 min. For assays using recombinant protein and enzyme fractions isolated from plant leaves, 0.01 to 0.1 μg and approximately 50 μg of proteins were used, respectively. After adding 0.5 μl of 0.1 M dithiothreitol, the samples were further incubated at room temperature for 15 min. During these incubations, the substrate solution containing 50 mM Hepes (pH 7.4), 2 mM MnCl2, 4 mM E4P, and 4 mM PEP at final concentration was preheated at 37° C. The enzyme reaction was started by adding 6.8 μl of the substrate solution, then incubated at 37° C. for 30 min, and terminated by adding 30 μl of 0.6 M trichloroacetic acid. After a brief centrifugation, 5 μl of 200 mM NaIO4 (sodium meta-periodate) in 9 N H3PO4 was added to oxidize the enzymatic product and to incubate at 25° C. for 20 min. To stop the oxidation reaction, 20 μl of 0.75 M NaAsO2 (sodium arsenite), which was dissolved in 0.5 M Na2SO4 and 0.05 M H2SO4, was added and immediately mixed. After 5 min of incubation at room temperature, one-third of the sample solution was transferred to a new tube to be mixed with 50 μl of 40 mM thiobarbituric acid and incubated at 99° C. for 15 min in a thermal cycler. The mixture was added to 600 μl of cyclohexanone in eight-strip solvent-resistant plastic tubes, mixed vigorously, and centrifuged at 4500 g for 3 min to separate water- and cyclohexanone-based layers for the extraction off the developed pink chromophore. The absorbance of the pink supernatant was read at 549 nm with the microplate reader (Infinite 200 PRO, TECAN) to calculate DAHP production with the molar extinction coefficient at 549 nm (ε=549 nm) of 4.5×10^4 M^−1 cm^−1. Reaction mixtures with boiled enzymes were run in parallel and used as negative controls to estimate the background signal.

DHS1^B4 = molecular target: T2, DHS1^B4 (Arabidopsis thaliana, UniProt P29976, G244R); assay: DHS enzyme assay, recombinant DHS1^B4; format: biochemical
T2 construct: without the predicted plastid transit peptide (amino acid residues; 49-525, 34-507, and 52-527, respectively); made in house; host or cells: E. coli
Method: as §1, §2

[2] = molecular target: T3, Arabidopsis thaliana DHS2 (AtDHS2), wild type (DHS2^WT), SEQ ID NO:2 (Arabidopsis thaliana, UniProt Q00218); conditions: DHS2^WT; values for AAAs, chorismate, caffeate from Yokoyama et al., Plant Cell, 2021; cited from earlier work
T3 construct: without the predicted plastid transit peptide (amino acid residues; 49-525, 34-507, and 52-527, respectively); made in house; host or cells: E. coli Rosetta-2

[3] = molecular target: T4, Arabidopsis thaliana DHS1 (AtDHS1), wild type (DHS1^WT), SEQ ID NO:1 (Arabidopsis thaliana, UniProt P29976); conditions: values for AAAs, chorismate, caffeate from Yokoyama et al., Plant Cell, 2021; cited from earlier work
T4 construct: without the predicted plastid transit peptide (amino acid residues; 49-525, 34-507, and 52-527, respectively); made in house; host or cells: E. coli Rosetta-2

[4] = molecular target: T5, Arabidopsis thaliana DHS1 (SEQ ID NO:1) variant DHS1^B4 (sotaB4), G244R (Arabidopsis thaliana, UniProt P29976, G244R); assay: DHS enzyme assay with effector, DHS1 sotaB4; format: biochemical
T5 construct: without the predicted plastid transit peptide (amino acid residues; 49-525, 34-507, and 52-527, respectively); made in house; host or cells: E. coli
Method: as §1, §2

DHS2^A4 = molecular target: T6, DHS2^A4 (Arabidopsis thaliana, UniProt Q00218, G222S); format: biochemical
T6 construct: without the predicted plastid transit peptide (amino acid residues; 49-525, 34-507, and 52-527, respectively); made in house; host or cells: E. coli
Method: as §1, §2

[5] = test system: Arabidopsis thaliana DHS^WT isoforms (DHS1, DHS2, DHS3), SEQ ID NO:1-3; conditions: reference 9; cited from earlier work
plant DHSs = conditions: prior reports (9); cited from earlier work
DHS1^WT = molecular target: T7, DHS1^WT (Arabidopsis thaliana, UniProt P29976); assay: DHS enzyme assay (colorimetric), recombinant DHS1^WT; format: biochemical
T7 construct: without the predicted plastid transit peptide (amino acid residues; 49-525, 34-507, and 52-527, respectively); made in house; host or cells: E. coli Rosetta-2
Method: as §1, §2

[6] = test system: Arabidopsis Col-0 WT plants; assay: Plant growth on media containing ILA or IPA (feeding); format: in vivo, Arabidopsis thaliana; conditions: IPA <10 μM; ILA 0-1000 μM in media
Text: (A) A structural model of A. thaliana DHS2 (AtDHS2, purple) generated from the P. aeruginosa DHS (PaDHS, white) with Trp (magenta) bound. Residues corresponding to the sota mutations mapped onto the AtDHS2 model are highlighted in yellow. (B) Selected regions of the amino acid sequence alignment of PaDHS and AtDHS enzymes, with the positions of the sota mutations indicated by blue, red, green arrows for AtDHS1, AtDHS2, and AtDHS3, respectively. […] Data are means±SEM (n=3). (D) Screening of AAAs and AAA-derived metabolites as potential inhibitors of DHS1^WT and DHS2^WT. *P≤0.05, **P≤0.01, ***P≤0.001, and ****P≤0.0001 denote significant differences by one-way ANOVA with Dunnett's test against the corresponding “No effector” samples. Data are means±SEM (n=3). The dotted horizontal lines separate four sets of independent experiments. […] Data are means±SEM (n=3). (G) Plant picture (left) and fresh weight measurement (right) of 3-week-old Col-0, sotaB4, and sotaA4 mutants (Col-0 background) on the media containing ILA at 0, 250, 500, or 1000 μM. *P≤0.05 and **P≤0.01 denote significant differences by one-way ANOVA with Dunnett's test against the corresponding Col-0 samples (n=12 to 16 independent plant samples). […]

DHS2^WT = molecular target: T8, DHS2^WT (Arabidopsis thaliana, UniProt Q00218); assay: DHS enzyme assay, recombinant DHS2^WT; format: biochemical; conditions: FIG. 2D
T8 construct: without the predicted plastid transit peptide (amino acid residues; 49-525, 34-507, and 52-527, respectively); made in house; host or cells: E. coli Rosetta-2
Method: as §1, §2

[7] = test system: Nicotiana benthamiana leaves; assay: Transient expression of Arabidopsis DHS1 WT and B4 in Nicotiana benthamiana, AAA levels by LC-MS; format: in vivo; conditions: two days after inoculation
Method: Vectors for plant expression were made as previously described using MoClo modular cloning technology. For transient expression in Nicotiana benthamiana, gene expression of the protein coding sequence (CDS) of DHS1 WT and B4 were driven by a 1987-bp sequence obtained from the upstream region of the ubiquitin 10 gene (At4g05320) from Arabidopsis. In addition, a synthetic hemagglutinin (HA) tag comprising 6 repeats of the sequence […] (SEQ ID NO:75) was added to the C-terminus of the protein for quantification of protein expression using an anti-HA antibody. Vectors containing the promoter, CDS, epitope HA-tag, and a terminator were transformed into Agrobacterium tumefaciens via electroporation.
Positive transformants were used to perform transient expression in Nicotiana benthamiana. Single colony bacteria were grown in LB media supplemented with kanamycin (100 mg/L) and gentamycin (100 mg/L) at 28° C. with constant agitation at 200 rpm. […] After complete resuspension, bacteria concentration was evaluated by spectrometry using optical density (OD) at 600 nm. […]
Each inoculated leaf was separated into 4 quadrants, and each quadrant received a different bacteria solution containing a different vector. […] Samples for metabolite analysis were collected two days after inoculation and processed as previously described for quantification of aromatic amino acids.

T5 sequence (P29976 49-525 G244R): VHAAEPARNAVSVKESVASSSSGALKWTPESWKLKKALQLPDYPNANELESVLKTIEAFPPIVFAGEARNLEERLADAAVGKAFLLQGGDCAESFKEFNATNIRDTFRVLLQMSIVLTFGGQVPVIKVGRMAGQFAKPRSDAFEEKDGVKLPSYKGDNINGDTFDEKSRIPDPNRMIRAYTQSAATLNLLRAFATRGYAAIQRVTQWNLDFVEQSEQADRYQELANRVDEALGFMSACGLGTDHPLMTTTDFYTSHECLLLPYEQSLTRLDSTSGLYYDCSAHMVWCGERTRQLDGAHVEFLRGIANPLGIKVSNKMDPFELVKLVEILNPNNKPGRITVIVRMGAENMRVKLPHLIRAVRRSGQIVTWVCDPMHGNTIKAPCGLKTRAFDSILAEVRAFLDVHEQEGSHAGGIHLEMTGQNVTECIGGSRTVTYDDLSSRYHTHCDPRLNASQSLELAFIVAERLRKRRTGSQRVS
T7 sequence (P29976 49-525): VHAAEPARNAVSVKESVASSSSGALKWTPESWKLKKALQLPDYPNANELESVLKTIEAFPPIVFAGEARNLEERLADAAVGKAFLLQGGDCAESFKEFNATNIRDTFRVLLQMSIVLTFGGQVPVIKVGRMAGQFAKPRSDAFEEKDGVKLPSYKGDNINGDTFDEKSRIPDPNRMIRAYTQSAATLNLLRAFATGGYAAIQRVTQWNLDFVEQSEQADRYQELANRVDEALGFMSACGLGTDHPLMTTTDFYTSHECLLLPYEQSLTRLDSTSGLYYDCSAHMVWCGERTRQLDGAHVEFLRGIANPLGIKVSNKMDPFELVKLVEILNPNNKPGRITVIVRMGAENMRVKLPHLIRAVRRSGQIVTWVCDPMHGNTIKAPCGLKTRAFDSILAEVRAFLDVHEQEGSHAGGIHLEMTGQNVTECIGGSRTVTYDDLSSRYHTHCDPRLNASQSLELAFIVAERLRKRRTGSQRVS
T2 sequence (P29976 49-525 G244R): as the sequence (P29976 49-525 G244R) above
T1 sequence (Q00218 34-507 G222S): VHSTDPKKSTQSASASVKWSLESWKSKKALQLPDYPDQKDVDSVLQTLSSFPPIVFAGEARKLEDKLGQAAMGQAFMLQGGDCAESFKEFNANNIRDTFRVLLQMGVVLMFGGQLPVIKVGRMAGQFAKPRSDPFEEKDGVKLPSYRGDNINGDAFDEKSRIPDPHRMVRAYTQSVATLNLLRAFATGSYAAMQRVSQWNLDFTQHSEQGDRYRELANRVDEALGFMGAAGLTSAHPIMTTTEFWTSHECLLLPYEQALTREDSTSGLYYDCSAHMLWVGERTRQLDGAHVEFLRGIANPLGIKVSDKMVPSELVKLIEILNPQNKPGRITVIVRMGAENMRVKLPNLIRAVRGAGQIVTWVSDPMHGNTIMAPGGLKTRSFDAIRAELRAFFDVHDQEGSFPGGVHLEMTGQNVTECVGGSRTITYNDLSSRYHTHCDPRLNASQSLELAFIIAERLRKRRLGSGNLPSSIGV
T6 sequence (Q00218 34-507 G222S): as above
T4 sequence (P29976 49-525): as the sequence (P29976 49-525) above
T8 sequence (Q00218 34-507): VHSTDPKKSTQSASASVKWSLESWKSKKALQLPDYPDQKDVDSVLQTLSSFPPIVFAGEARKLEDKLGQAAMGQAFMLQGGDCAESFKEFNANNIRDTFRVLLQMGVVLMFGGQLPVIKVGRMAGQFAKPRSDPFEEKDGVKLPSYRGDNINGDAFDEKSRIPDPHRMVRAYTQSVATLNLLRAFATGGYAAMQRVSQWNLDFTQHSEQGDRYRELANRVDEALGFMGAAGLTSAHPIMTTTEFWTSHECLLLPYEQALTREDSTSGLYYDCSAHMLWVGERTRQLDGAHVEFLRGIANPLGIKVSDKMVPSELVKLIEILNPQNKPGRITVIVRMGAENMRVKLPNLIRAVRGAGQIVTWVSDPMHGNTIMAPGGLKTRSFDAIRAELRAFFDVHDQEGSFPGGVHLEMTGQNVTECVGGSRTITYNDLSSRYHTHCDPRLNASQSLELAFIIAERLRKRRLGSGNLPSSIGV
T3 sequence (Q00218 34-507): as above

C=C(O[C@@H]1C=C(C(=O)O)C=C[C@H]1O)C(=O)O [Chorismate]
IC50 [1]: 101 µM
inhibition of DHS2^A4 ([1]; up to 1 mM Tyr, Trp (FIG. 2C), shikimate, arogenate, prephenate at 1 mM (FIG. 21A)): still inhibited
inhibition of DHS1^B4 activity (DHS1^B4): still strongly inhibited
IC50 (DHS1^B4; recombinant enzyme, read-out: IC50 of effector molecule on DHS1^B4): 25.3 µM
IC50 [2]: 81 µM
IC50 [3]: 14.6 µM
IC50 [4]: 25.3 µM
inhibition of DHS1^B4 ([4]; FIG. 19): still strongly inhibited
inhibition of DHS2^A4 activity (DHS2^A4; effector up to 1 mM): still inhibited
IC50 (DHS2^A4; recombinant enzyme, read-out: IC50 of effector molecule on DHS2^A4): 102 µM
inhibition of all Arabidopsis DHS isoforms [5]: strongly inhibit all Arabidopsis DHS isoforms

O=C[C@H](O)[C@H](O)COP(=O)(O)O [E4P, erythrose-4-phosphate]
Km for E4P (plant DHSs): high

O=C(O)C(O)Cc1c[nH]c2ccccc12 (stereo not drawn) [ILA, Indole-3-lactate]
effect on DHS1 activity (effector screening) (DHS1^WT; FIG. 2D): reduced the activity
IC50 (DHS1^WT; recombinant enzyme, read-out: IC50 of effector molecule on DHS1^WT): 210 µM
effect of feeding on plant growth [6]: growth inhibition
IC50 ([4]; DHS1^B4, 4 mM E4P, 4 mM PEP, pH 7.4, 37° C.): 2880 µM
effect on DHS2 activity (effector screening) (DHS2^WT): reduced the activity

Arabidopsis DHS1 sotaB4 mutant: Arabidopsis DHS1 enzyme with the sotaB4 mutation (G244R)
production of tyrosine and phenylalanine in the tobacco plant [7]: significantly elevated production
